Key:
B = experiment: B
Experimental: Table printed on a drawing sheet, FIG. 2A-D
Blood plasma was collected at indicated time points. […] (B) Plasma half-lives of Dox were calculated using two-phase exponential decay: MFI (t)=Ae^−αt+Be^−βt. t½, α, fast clearance half-life; t½, β, slow clearance half-life. […] At the indicated time points, tumors were harvested, and the amount of Dox within the tumors was quantified (mean±SEM. n=5 for 2 h, n=7 for 24 h per group). […] 1 h after injection, tumors were harvested and fluorescence was analyzed by confocal microscopy. Tissues were also stained with DAPI and anti-CD31 antibody. Scale bar=100 μm. Representative images of 3 tumors, each. Two experimental replicates. Statistical analyses were done using ANOVA with Tukey's test. *p<0.05; **p<0.01; N.S.=not significant.

MMTV-PyMT cells = experiment: Cellular uptake of Dox-conjugates (confocal microscopy); format: cell-based, mouse; conditions: after 1 h of incubation, 50 μM equivalent of Dox
Experimental: To evaluate the cellular uptake of Dox-conjugates, MMTV-PyMT cells were seeded in 96 well high content imaging plate (Corning) at 5000 cells/well and incubated overnight. […] After the incubation, cells were washed twice, treated with 75 nM of Lysotracker Deep Red and further incubated 30 min at 37° C. Cells were washed twice and observed by IX83 microscope (Olympus) with ×60 magnification. Images were processed using ImageJ software (NIH). Scale bar; 20 μm.

[1] = mouse models; cited from earlier work
MMTV-PyMT breast cancer [2] = experiment: MMTV-PyMT murine breast cancer model, anti-tumor efficacy; format: in vivo, mouse; conditions: single i.v. injection 5 mg/kg Dox basis on day 7
Experimental: The MMTV-PyMT murine breast cancer model was prepared as described previously (9). A total of 5×10^5 MMTV-PyMT cells suspended in 50 μL of PBS were injected subcutaneously into the mammary gland on the right side of each mouse. […] Tumors were measured with a digital caliper at indicated time points, and volumes were calculated as ellipsoids, where V=4/3×3.14×depth/2×width/2×height/2. Mice were sacrificed when tumor volume had reached over 500 mm^3 or when active ulceration was observed. For the therapeutic experiment, FVB mice originated from Charles River origin were used. […] The proportion of mice from different providers was equalized among all groups.

MMTV-PyMT breast cancer [3] = experiment: Tumor-infiltrating lymphocytes by flow cytometry in MMTV-PyMT model; format: in vivo, mouse; conditions: 7 days after treatment, 5 mg/kg
Experimental: MMTV-PyMT model was prepared as described above. […] Mice were sacrificed on day 14. Cell suspensions were obtained from each tumor as described previously (9). Tumors were harvested and digested in Dulbecco's Modified Eagle Medium (DMEM) supplemented with 2% FBS, 2 mg/mL collagenase D and 40 μg/mL DNase I (Roche) for 30 min at 37° C. Single-cell suspensions were obtained by gently disrupting the organs through a 70 μm cell strainer. Red blood cells were lysed with ACK lysing buffer (Quality Biological). Fixable live/dead cell discrimination was performed using Fixable Viability Dye eFluor 455 (eBioscience) according to the manufacturer's instructions. Following a washing step, cells were stained with specific antibodies for 20 min on ice prior to fixation. Following antibodies were used to stain the cells: CD3 (145-2C11, BD Biosciences), CD4 (RM4-5, BD Biosciences), CD8α (53-6.7, BD Biosciences), CD45 (30-F11, BD Biosciences), and NK1.1 (PK136, BD Biosciences). All flow cytometric analyses were done using a Fortessa flow cytometer (BD Biosciences) and analyzed using FlowJo software (Tree Star).

[4] = Toxicity profiles in tumor-free FVB mice; conditions: 20 mg/kg Dox basis
Experimental: Blood samples were collected from each mouse in EDTA-coated tube by submandibular bleeding on day 3 and day 6 after injection for plasma cytokine analysis and hematological analysis. Body weight of each mouse was measured at indicated time points. On day 16, mice were sacrificed and organs were harvested. Spleens were weighed, and the other organs were used for histological analysis. Mice were sacrificed when more than 15% decrease of initial body weight was observed.
Blood samples were analyzed using COULTER Ac⋅T 5diff CP hematology analyzer (Beckman coulter) according to the manufacturer's instructions.
Blood plasma was collected from whole blood sample as described above and stored at −20° C. until use. Cytokine concentrations in plasma were measured using Ready-SET-Go! ELISA kits (eBioscience) and Can Get Signal solution (TOYOBO) according to manufacturer's instructions.
Organs were fixed with 2% paraformaldehyde in PBS overnight. After embedding in paraffin, blocks were cut into 5 μm sections, followed by H&E staining.

For `COc1cccc2c1C(=O)c1c(O)c3c(c(O)c1C2=O)C[C@@](O)(/C(CO)=N/NC(=O)CCCCCN1C(=O)C=CC1=O)C[C@@H]3O[C@H]1C[C@H](N)[C@H](O)[C@H](C)O1` [Aldoxorubicin], the “t½, α” value (B) was 2.4 ± 0.168 min and the “t½, β” value (B) was 22.6 ± 3.3 h.

For `COc1cccc2c1C(=O)c1c(O)c3c(c(O)c1C2=O)C[C@@](O)(C(=O)CO)C[C@@H]3O[C@H]1C[C@H](N)[C@H](O)[C@H](C)O1` [Dox, Doxorubicin], the “intracellular localization of Dox fluorescence” value (MMTV-PyMT cells) is given as “detected in cytoplasm, intracellular acidic organelles, and preferentially in the nucleus” and the “cumulative dose that irreversibly damages cardiac tissue” value [1] is given as 15 mg/kg.

In the case of `COc1cccc2c1C(=O)c1c(O)c3c(c(O)c1C2=O)C[C@@](O)(/C(CO)=N/NC(=O)CCCCCN1C(=O)C=CC1=O)C[C@@H]3O[C@H]1C[C@H](N)[C@H](O)[C@H](C)O1` [aldoxorubicin], the tumor growth (MMTV-PyMT breast cancer [2]) is reported as “did not”, the “number of CD4+ T cells within the tumor per unit tumor mass” value (MMTV-PyMT breast cancer [3]) is reported as “not” and the “number of CD8+ T cells within the tumor per unit tumor mass” value (MMTV-PyMT breast cancer [3]) is reported as “not”. The “number of NK cells within the tumor per unit tumor mass” value (MMTV-PyMT breast cancer [3]) was “not”, the “plasma concentration of IFN-γ” value ([4]; day 3) was “increased” and the “plasma concentration of IL-5” value ([4]; day 3) was “increased”. The “plasma concentration of IL-6” value ([4]; day 3) was “increased”, the “plasma concentration of TNF-α” value ([4]; day 3) was “increased” and the “white blood cell (WBC) counts” value ([4]; day 3) was “significant decrease”. For the same compound, the hematocrit ([4]; day 6) was “significant decrease”, the hemoglobin concentration ([4]; day 6) was “significant decrease” and the “red blood cell (RBC) counts” value ([4]; day 6) was “significant decrease”. The “splenomegaly (spleen weight)” value ([4]; day 16) was “induced splenomegaly”.

Reference: patent US20220298225A1, “METHODS AND COMPOSITIONS FOR TREATING CANCER WITH COLLAGEN BINDING DRUG CARRIERS” (The University of Chicago, priority 2019, published 2022)
